The subject of assay [1] is D1 cells (32D expressing ErbB-1). Description: 32D cell proliferation, 24-hour dose-response MTT assay. The class given is cell-based. The note with it: 24-hour dose-response, without IL-3. As for the experimental part:
The indicated derivative lines of 32D cells were tested for cell proliferation using the [3-(4,5-dimethylthiazol-2-yl)-2,5-diphenyl]tetrazolium bromide (MTT) assay. […] The MT assay was performed 24 hours later. Results are presented as percent induction over the control untreated cells, and are the mean±S.D. of 4 determinations. Each experiment was repeated at least twice with similar findings.
(§1) The establishment of a series of interleukin 3 (IL-3)-dependent 32D myeloid cells expressing all combinations of ErbB proteins has been described (Alimandi et al., 1997; Pinkas-Kramarski et al., 1996; Shelly et al., 1998). Cells were maintained in RPMI medium with 10% fetal bovine serum (FBS) and dilute IL3-containing conditioned medium. Prior to proliferation assays, cells were washed three times in RPMI/FBS and plated (5×10^5 cells/ml; 0.1 ml/well) into 96-well flat-bottomed plates with the indicated liconcentrations or with IL-3 (1:1000 dilution of conditioned medium). Cell survival was determined 24 hours later, or after the indicated time intervals, by MTT assay, as previously described (Mosman, 1983). MTT (0.05 mg/ml) was incubated with the analyzed cells for 2 hours at 37 C. Living cells can transform the tetrazolium ring into dark blue formazan crystals, that can be quantified by reading the optical density at 540-630 nm after lysis of the cells with acidic isopropanol. […]

The test system of assay [2] is D12 cells (32D co-expressing ErbB-1 and ErbB-2). Nature of the assay: Long-term cell survival assay in the absence of IL-3 (MTT). Format: cell-based. The note with it: ligand 100 ng/ml, FIG. 3B. As for the experimental part: FIG. 3b show survival effect of NRG-4 on ErbB-expressing derivatives of 32D cells. The indicated derivatives of 32D cells were incubated for various time intervals in the absence of IL-3. […] For control, cells were incubated with medium conditioned by IL-3-producing cells (open triangles), or with no factor (open circles). The extent of cell proliferation was determined daily by using the calorimetric MTT assay. The data presented are the mean±S.D. of 4 determinations. Note that co-expression of ErbB-1 and ErbB-2 (D12 cells) enabled cell survival in the absence of IL-3. The experiment was repeated twice with similar results.
as §1, with “Prior to proliferation assays, cells were washed three times in RPMI/FBS and plated (5×10^5 cells/ml; 0.1 ml/well) into 96-well flat-bottomed plates with the indicated liconcentrations or with IL-3 (1:1000 dilution of conditioned medium).” left out

These results are taken from patent US7981997B2, “Growth factor which acts through ErbB-4 RTK” (Yeda Research And Development Co., priority 2000, dated 2011).

“EGF: EGF (human, recombinant) purchased from Boehringer Mannheim (NSDSECPLSHDGYCLHDGVCMYIEALDKYACNCVVGYIGERCQYRDLKWWELR) [reference compound]”: the “mitogenic response of D1 cells” value in assay [1] was “retained”. In addition, the “response of D12 cells (high basal proliferation activity)” value in assay [2] is reported as “still responded”.
